Values quoted from earlier work as cited in patent US7374751B1, “QS-21 and IL-12 as an adjuvant combination” (Wyeth Holdings Corporation, priority 2001, dated 2008).

Settings: clinical data, F/QS-21 formulation, immediately after injection

Q: With QS-21 as the substance, how does the local acute toxicity read?
A: associated with local acute toxicity immediately after injection
